# The source made the active and inactive calls.
# Tests used:
# [1] = biological target: T1, Runt-related transcription factor 1/Core-binding factor subunit beta (Homo sapiens, UniProt Q01196+Q13951); experiment: disruptors of Runt domain/CBFb-SMMHC interaction – biochemical, FRET, Cerulean-Runt, Venus-CBFb-SMMHC, uHTS, […] (AID 1434); format: protein assay
# Aminopeptidase N = biological target: T2, Aminopeptidase N (Plasmodium falciparum FcB1/Columbia, UniProt O96935); experiment: malaria alanyl aminopeptidase activity blockers – biochemical, fluorogenic H-Leu-NHMec substrate, 1536-well (AID 1445); design: species or system Plasmodium falciparum 3D7, 3D7
# T2 sequence (O96935 whole entry): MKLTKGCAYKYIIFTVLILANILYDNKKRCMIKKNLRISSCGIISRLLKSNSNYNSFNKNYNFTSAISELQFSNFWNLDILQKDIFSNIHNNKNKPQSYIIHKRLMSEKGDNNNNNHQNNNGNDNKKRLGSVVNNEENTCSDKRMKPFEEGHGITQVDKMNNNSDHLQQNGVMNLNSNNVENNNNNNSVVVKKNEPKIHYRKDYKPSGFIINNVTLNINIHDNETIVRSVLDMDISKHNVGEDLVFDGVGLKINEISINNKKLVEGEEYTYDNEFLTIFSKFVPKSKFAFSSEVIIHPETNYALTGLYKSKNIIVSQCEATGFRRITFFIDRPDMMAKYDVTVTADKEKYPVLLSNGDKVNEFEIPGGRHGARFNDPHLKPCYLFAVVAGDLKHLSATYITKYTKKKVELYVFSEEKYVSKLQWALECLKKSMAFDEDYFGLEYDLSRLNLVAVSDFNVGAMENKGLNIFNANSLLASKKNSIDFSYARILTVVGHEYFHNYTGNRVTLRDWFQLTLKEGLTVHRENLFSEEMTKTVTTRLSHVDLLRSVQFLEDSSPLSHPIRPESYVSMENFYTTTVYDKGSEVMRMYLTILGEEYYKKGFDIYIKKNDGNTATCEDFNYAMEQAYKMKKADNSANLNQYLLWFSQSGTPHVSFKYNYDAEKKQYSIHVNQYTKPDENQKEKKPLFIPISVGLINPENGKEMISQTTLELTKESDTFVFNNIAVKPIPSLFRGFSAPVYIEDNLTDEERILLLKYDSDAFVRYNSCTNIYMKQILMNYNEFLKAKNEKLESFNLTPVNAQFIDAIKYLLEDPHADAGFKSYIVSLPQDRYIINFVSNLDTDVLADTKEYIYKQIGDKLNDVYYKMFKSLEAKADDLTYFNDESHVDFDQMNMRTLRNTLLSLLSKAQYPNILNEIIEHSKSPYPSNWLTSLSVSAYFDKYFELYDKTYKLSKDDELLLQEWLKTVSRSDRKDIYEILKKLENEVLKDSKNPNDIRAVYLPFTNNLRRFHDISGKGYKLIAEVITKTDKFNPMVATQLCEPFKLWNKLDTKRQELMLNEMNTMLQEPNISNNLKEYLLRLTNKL
# [2] = biological target: T1, Runt-related transcription factor 1/Core-binding factor subunit beta; experiment: Runt domain/CBFb-SMMHC interaction disruptors – biochemical, TR-FRET (AID 1438); format: protein assay
# [3] = biological target: Sphingosine 1-phosphate receptor 2 (Homo sapiens, UniProt O95136); experiment: Late stage counterscreen assay for S1P4 antagonists: Fluorescence dose response cell-based screening assay for antagonists of the Sphingosine 1-Phosphate Receptor 2 (S1P2). [Related pubchem assays (depositor defined):AID1510, AID1524, AID1692, AID1853, AID2332, AID489009, AID489017]; format: functional
# [4] = biological target: Sphingosine 1-phosphate receptor 1 (Homo sapiens, UniProt P21453); experiment: Late stage counterscreen assay for S1P4 antagonists: Fluorescence dose response cell-based screening assay for antagonists of the Sphingosine 1-Phosphate Receptor 1 (S1P1). [Related pubchem assays (depositor defined):AID1510, AID1524, AID1692, AID1853, AID2332, AID489009, AID489017]; format: functional
# [5] = biological target: Sphingosine 1-phosphate receptor 3 (Homo sapiens, UniProt Q99500); experiment: Late stage counterscreen assay for S1P4 antagonists: Fluorescence dose response cell-based screening assay for antagonists of the Sphingosine 1-Phosphate Receptor 3 (S1P3). [Related pubchem assays (depositor defined):AID1510, AID1524, AID1692, AID1853, AID2332, AID489009, AID489017]; format: functional
# [6] = biological target: Sphingosine 1-phosphate receptor 5 (Homo sapiens, UniProt Q9H228); experiment: Late stage counterscreen assay for S1P4 antagonists: Fluorescence dose response cell-based screening assay for antagonists of the Sphingosine 1-Phosphate Receptor 5 (S1P5). [Related pubchem assays (depositor defined):AID1510, AID1524, AID1692, AID1853, AID2332, AID489009, AID489017]; format: functional
# [7] = biological target: T3, Intestinal-type alkaline phosphatase (Homo sapiens, UniProt P09923); experiment: Dose Response confirmation of uHTS hits from a small molecule inhibitors of human intestinal alkaline phosphatase via a luminescent assay. [Related pubchem assays (depositor defined):AID2544, AID2574]; format: functional
# [8] = biological target: T3, Intestinal-type alkaline phosphatase; experiment: human intestinal alkaline phosphatase activators, dose response, biochemical, luminescence, uHTS hits (AID 463120); format: functional
# [9] = biological target: T4, Tyrosine-protein phosphatase non-receptor type 22 (Homo sapiens, UniProt Q9Y2R2); format: functional
# T4 sequence (Q9Y2R2 whole entry): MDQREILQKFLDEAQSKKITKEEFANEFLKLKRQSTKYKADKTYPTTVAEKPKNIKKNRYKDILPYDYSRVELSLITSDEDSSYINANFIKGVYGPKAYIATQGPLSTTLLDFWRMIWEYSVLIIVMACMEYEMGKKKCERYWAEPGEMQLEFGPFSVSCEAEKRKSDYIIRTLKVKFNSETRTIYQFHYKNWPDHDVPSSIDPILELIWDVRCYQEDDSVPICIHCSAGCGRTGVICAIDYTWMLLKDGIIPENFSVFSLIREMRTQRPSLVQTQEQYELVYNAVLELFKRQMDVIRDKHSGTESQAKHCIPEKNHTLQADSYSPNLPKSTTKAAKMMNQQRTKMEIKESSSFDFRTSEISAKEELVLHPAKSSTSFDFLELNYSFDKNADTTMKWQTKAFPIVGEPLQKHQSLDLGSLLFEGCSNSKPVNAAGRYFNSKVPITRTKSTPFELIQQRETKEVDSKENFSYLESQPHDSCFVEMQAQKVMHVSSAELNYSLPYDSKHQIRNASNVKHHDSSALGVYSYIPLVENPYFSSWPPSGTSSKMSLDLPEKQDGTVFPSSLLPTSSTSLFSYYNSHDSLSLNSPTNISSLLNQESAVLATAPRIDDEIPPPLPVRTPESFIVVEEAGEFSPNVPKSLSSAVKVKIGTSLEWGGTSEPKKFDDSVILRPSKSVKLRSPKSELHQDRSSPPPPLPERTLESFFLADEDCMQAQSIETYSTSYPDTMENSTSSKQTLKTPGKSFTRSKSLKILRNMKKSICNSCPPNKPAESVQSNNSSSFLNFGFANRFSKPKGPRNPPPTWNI
# [10] = biological target: T5, Tyrosine-protein phosphatase non-receptor type 7 (Homo sapiens, UniProt P35236); format: functional
# T5 sequence (P35236 whole entry): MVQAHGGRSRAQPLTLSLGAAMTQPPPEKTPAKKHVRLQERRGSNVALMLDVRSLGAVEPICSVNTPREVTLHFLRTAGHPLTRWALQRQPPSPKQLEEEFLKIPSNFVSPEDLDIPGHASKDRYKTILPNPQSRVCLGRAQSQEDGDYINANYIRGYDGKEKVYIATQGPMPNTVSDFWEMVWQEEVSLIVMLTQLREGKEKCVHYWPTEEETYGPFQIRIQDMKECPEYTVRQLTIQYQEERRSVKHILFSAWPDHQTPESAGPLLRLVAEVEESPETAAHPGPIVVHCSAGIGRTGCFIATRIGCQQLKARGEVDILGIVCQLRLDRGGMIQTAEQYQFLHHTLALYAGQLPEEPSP
# [11] = biological target: T4, Tyrosine-protein phosphatase non-receptor type 22; format: functional; remark: listed apart in the source
# [12] = biological target: Signal transducer and activator of transcription 1-alpha/beta (Homo sapiens, UniProt P42224); experiment: STAT3 blockade with qPCR and toxicity readouts – cell-based, STAT1 panel, cytotoxicity, late-stage follow-up, panel member STAT1 Inhibition (AID 2078)
# [13] = biological target: Signal transducer and activator of transcription 3 (Homo sapiens, UniProt P40763); experiment: STAT3 blockade with qPCR and toxicity readouts – cell-based, STAT1 panel, cytotoxicity, late-stage follow-up, panel member STAT3 Inhibition (AID 2078)
# [14] = biological target: Voltage-dependent T-type calcium channel subunit alpha-1H (Homo sapiens, UniProt O95180); experiment: inhibition of CACNA1H calcium flux – cell-based, SynthLib3 library, HEK293 Cav3.2, fluorescence (AID 493041); format: functional
# [15] = biological target: T5, Tyrosine-protein phosphatase non-receptor type 7; experiment: inhibition of hematopoietic tyrosine phosphatase HePTP – biochemical, set 2, SAR follow-up (AID 449736); format: functional
# [16] = biological target: Delta-type opioid receptor (Homo sapiens, UniProt P41143); experiment: SAR Analysis of Agonists of the DOR Receptor using an Image-Based Assay - Set 3. [Related pubchem assays (depositor defined):AID1777, AID1786]; format: functional
# Mu-type opioid receptor = Mu-type opioid receptor (Homo sapiens, UniProt P35372); experiment: SAR Analysis of Agonists of the MOR Receptor using an Image-Based Assay - Set 3. [Related pubchem assays (depositor defined):AID1777, AID1785, AID1786, AID1966, AID2133, AID2136, AID2284, AID2285, AID2352]; format: functional
# [17] = biological target: T6, Kappa-type opioid receptor (Homo sapiens, UniProt P41145); experiment: kappa opioid receptor activation by imaging – image-based, set 3, SAR follow-up (AID 488833); format: functional
# [18] = biological target: T6, Kappa-type opioid receptor; experiment: SAR analysis of small molecule agonists of the kappa opioid receptor via a luminescent beta-arrestin assay - Set 3. [Related pubchem assays (depositor defined):AID1777, AID1785, AID1786, AID1966, AID2133, AID2136, AID2284, AID2500]; format: functional
# Hexokinase-1 = Hexokinase-1 (Homo sapiens, UniProt P19367); experiment: HK1 enzyme activation by HKDC1 hits – biochemical, selectivity assay for HKDC1 activator project, dose response (AID 504762); format: functional
# Hexokinase HKDC1 = Hexokinase HKDC1 (Homo sapiens, UniProt Q2TB90); experiment: inhibition of HKDC1 glucose phosphorylation – biochemical, W721R variant, dose response (AID 504729); format: functional
# [19] = biological target: T7, Rac GTPase-activating protein 1 (Homo sapiens, UniProt Q9H0H5); experiment: blockers of MgcRacGAP-driven Rac1 GTP hydrolysis – biochemical, ADP Hunter fluorescence, primary and confirmatory, confirmation (AID 624330); format: functional
# T7 sequence (Q9H0H5 whole entry): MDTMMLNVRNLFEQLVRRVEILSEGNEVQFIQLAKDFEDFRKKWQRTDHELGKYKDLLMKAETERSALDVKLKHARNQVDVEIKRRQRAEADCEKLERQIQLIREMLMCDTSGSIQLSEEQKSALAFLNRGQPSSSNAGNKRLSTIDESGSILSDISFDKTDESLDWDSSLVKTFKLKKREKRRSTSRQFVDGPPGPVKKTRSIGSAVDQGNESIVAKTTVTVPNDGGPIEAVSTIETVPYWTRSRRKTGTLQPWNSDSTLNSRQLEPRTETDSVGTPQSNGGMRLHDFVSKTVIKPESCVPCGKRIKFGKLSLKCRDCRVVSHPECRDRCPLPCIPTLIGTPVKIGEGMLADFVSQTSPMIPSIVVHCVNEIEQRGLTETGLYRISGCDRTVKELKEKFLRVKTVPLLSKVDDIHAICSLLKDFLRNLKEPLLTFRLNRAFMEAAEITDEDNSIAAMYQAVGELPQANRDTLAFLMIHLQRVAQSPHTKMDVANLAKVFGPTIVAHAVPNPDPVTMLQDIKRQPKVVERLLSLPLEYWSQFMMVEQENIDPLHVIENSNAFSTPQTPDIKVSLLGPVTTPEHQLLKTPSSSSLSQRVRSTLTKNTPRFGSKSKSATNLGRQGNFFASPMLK
# T1 sequence (Q01196 whole entry, the tested form may be a part): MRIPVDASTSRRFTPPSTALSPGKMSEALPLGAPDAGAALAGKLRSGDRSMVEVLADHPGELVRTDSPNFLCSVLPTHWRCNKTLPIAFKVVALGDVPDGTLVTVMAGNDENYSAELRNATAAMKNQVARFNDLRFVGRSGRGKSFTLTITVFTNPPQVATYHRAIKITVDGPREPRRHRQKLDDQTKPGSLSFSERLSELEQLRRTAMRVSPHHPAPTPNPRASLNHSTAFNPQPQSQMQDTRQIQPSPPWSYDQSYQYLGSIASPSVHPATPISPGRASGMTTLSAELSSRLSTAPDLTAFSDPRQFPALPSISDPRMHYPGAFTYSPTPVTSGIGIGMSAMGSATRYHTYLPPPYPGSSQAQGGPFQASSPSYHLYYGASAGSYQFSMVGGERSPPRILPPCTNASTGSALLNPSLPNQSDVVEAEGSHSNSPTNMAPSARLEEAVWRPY
# T1 sequence (Q13951 whole entry, the tested form may be a part): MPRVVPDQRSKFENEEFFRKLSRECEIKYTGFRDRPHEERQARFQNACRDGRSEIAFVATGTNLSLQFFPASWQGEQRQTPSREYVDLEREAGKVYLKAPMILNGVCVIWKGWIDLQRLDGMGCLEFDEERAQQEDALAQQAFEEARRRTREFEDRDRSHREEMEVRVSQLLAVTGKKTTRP
# T6 sequence (P41145 whole entry): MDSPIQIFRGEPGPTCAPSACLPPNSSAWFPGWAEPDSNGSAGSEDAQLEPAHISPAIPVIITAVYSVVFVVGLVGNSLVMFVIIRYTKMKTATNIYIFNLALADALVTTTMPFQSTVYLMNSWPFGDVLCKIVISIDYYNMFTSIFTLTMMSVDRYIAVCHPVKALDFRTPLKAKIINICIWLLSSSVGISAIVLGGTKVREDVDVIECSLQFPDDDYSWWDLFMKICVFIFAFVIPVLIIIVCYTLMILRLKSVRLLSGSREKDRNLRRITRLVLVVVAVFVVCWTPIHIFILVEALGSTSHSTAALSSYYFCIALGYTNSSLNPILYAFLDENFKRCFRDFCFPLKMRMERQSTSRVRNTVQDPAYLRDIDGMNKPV
# T3 sequence (P09923 whole entry): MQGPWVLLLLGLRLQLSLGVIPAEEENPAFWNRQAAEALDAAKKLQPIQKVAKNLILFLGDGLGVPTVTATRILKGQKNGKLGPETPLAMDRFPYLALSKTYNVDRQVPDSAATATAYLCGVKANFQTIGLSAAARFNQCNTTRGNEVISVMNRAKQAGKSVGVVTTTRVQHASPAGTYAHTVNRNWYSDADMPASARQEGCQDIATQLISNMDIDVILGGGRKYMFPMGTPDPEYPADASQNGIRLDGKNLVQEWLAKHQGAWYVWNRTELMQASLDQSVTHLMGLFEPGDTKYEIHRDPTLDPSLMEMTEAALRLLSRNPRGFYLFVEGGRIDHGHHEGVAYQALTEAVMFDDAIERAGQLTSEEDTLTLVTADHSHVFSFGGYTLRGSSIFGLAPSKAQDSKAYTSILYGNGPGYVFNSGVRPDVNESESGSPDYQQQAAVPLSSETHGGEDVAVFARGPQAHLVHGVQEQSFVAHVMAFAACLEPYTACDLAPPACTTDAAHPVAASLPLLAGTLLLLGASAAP
# Sequence of Sphingosine 1-phosphate receptor 3 (Q99500 whole entry): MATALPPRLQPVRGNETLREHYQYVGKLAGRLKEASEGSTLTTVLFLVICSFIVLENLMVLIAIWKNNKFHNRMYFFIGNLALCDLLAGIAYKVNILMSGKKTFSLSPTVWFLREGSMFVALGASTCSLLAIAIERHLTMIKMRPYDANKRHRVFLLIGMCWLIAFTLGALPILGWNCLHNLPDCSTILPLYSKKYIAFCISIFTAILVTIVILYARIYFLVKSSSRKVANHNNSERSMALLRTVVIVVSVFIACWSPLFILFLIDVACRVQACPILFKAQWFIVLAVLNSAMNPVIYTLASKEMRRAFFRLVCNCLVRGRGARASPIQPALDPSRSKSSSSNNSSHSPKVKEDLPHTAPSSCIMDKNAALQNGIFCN
# Sequence of Sphingosine 1-phosphate receptor 5 (Q9H228 whole entry): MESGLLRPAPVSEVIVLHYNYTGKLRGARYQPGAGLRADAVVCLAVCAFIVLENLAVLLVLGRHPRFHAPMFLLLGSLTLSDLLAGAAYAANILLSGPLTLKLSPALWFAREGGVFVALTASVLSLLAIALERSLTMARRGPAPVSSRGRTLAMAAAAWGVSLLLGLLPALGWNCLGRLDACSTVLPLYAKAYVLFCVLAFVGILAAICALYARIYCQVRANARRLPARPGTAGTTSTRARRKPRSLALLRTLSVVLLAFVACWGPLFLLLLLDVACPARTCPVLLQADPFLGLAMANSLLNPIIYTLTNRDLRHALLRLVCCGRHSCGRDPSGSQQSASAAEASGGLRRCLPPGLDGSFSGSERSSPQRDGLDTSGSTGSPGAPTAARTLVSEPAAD
# Sequence of Sphingosine 1-phosphate receptor 1 (P21453 whole entry): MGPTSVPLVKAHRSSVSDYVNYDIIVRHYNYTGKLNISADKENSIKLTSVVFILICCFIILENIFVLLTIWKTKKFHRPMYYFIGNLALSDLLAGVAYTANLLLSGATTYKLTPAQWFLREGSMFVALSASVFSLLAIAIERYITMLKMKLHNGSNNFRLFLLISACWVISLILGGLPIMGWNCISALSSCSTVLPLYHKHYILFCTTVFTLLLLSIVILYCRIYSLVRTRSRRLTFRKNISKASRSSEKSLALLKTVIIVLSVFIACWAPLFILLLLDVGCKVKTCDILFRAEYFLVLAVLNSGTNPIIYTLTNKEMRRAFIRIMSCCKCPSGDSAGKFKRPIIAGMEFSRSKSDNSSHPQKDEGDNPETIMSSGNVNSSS
# Sequence of Signal transducer and activator of transcription 1-alpha/beta (P42224 whole entry): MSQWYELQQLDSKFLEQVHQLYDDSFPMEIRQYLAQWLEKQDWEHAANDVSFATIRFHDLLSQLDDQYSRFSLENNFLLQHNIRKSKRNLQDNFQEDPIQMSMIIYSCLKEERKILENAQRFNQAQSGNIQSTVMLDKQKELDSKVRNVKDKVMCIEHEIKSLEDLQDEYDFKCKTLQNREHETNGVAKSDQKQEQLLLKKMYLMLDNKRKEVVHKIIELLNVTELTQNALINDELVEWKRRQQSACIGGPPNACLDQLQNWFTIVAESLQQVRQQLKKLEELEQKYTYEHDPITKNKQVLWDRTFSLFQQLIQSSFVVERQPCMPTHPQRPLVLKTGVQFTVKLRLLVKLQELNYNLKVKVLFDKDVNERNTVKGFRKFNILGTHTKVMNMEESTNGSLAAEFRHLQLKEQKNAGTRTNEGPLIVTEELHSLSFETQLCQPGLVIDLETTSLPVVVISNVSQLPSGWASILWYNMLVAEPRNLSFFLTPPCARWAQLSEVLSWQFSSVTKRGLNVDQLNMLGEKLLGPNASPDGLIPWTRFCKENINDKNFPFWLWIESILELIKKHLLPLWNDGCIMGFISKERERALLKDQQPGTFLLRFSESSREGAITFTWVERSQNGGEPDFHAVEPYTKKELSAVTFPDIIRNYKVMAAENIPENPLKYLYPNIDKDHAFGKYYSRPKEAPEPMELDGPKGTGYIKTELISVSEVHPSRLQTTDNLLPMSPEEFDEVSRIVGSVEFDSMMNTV
# Sequence of Signal transducer and activator of transcription 3 (P40763 whole entry): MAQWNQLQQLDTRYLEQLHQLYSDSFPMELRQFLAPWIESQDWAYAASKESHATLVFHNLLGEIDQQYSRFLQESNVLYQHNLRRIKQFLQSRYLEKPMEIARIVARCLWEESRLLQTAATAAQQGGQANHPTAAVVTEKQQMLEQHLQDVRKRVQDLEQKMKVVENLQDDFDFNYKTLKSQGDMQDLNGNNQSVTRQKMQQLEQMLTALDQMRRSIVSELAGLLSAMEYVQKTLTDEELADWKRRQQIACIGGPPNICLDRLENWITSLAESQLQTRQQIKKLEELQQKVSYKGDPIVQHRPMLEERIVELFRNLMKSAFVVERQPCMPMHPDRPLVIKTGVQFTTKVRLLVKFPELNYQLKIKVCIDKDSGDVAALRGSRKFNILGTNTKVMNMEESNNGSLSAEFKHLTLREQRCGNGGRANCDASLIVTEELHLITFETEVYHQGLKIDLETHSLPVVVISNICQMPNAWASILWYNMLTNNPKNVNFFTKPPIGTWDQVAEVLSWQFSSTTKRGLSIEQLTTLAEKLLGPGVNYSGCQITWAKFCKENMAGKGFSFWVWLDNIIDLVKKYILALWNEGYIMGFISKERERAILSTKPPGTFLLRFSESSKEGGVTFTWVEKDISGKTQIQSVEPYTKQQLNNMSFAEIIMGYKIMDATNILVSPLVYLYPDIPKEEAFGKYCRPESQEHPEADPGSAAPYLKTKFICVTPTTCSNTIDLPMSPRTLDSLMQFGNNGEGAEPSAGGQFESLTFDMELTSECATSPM
# Sequence of Mu-type opioid receptor (P35372 whole entry): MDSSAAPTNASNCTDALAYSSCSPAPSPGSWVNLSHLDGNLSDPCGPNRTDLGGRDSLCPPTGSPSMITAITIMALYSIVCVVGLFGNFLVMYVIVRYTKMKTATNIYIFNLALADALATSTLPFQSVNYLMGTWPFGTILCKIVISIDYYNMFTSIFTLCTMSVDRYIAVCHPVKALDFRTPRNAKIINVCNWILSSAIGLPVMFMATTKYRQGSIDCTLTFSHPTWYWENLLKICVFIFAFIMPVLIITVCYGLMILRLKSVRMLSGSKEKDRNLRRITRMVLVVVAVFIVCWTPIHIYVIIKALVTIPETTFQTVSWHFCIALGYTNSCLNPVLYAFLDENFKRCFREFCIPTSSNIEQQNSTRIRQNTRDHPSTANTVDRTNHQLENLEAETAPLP
compound,measurement,setting,value
CC(C)OCCCn1c(-c2ccco2)nc2nc3ccccc3nc21,IC50,[1],7.07 µM (active)
same,IC50,Aminopeptidase N,92.6 µM (active)
same,IC50,[2],> 100 µM (inactive)
Cc1ccc(S(C)(=O)=O)c(C)c1NC(=O)c1ccc(-c2cc(Cl)ccc2Cl)o1,IC50,[3],13.8 µM (inactive)
same,IC50,[4],> 25 µM (inactive)
same,IC50,[5],15.8 µM (inactive)
same,IC50,[6],> 25 µM (inactive)
CCC(OC(=O)C1=Cc2ccccc2OC1)C(=O)NC1CCCC1 (stereo not drawn),IC50,[7],> 100 µM (inactive)
same,EC50,[8],> 100 µM (inactive)
COc1ccc(S(=O)(=O)N2CCCCCC2)cc1C(=O)OCc1c(C)noc1C,IC50,[9],> 79.4 µM (inactive)
same,IC50,[10],> 79.4 µM (inactive)
same,IC50,[11],> 79.4 µM (inactive)
c1ccc(CC2CCN(c3ncnc4scc(-c5cccs5)c34)CC2)cc1,IC50,[12],> 55.7 µM (inactive)
same,IC50,[13],16.7 µM (inactive)
CCC(C)CN1C[C@@H]2C(CNC(=O)c3cc(Cl)cc(Cl)c3)[C@@H]2C1 (stereo partly drawn),EC50,[14],4 µM (active)
NS(=O)(=O)c1ccc(NC(=S)NC2CCCc3ccccc32)cc1 (stereo not drawn),IC50,[15],66.5 µM (active)
CC(=O)Oc1ccc(CSc2nnc(-c3ccccn3)n2Cc2ccco2)cc1,EC50,[16],> 64 µM (inactive)
same,EC50,Mu-type opioid receptor,> 32 µM (inactive)
same,EC50,[17],> 32 µM (inactive)
same,EC50,[18],> 20 µM (inactive)
O=C(CNC(=O)c1ccc2c(c1)OCCO2)N/N=C/c1ccc(O)cc1O,EC50,Hexokinase-1,> 80 µM (inactive)
same,IC50,Hexokinase HKDC1,> 80 µM (inactive)
same,IC50,[19],160 µM (active)
